[C(1O2)] = modified PNA monomer acting as cytosine, C(pOq) type, 1O2; [A(5)] = modified PNA monomer acting as adenine, A(p) type, p=5; {Fmoc} = N-terminal Fmoc cap; {NH2} = C-terminal amide
Key:
mdx mice = experiment: Unscheduled death, sacrifice or lymphoma in chronically treated mdx mice; format: in vivo, mouse; conditions: DMD-ASO 1 50 pmole/Kg, DMD-ASO 2 or DMD-ASO 6 10 pmole/Kg, subcutaneous 2× per week, 66 weeks
From the text: [Grouping & ASO Treatment] Male mdx mice (7 weeks old) were randomly assigned to 4 groups of 0 (mdx negative control), 10, 50, and 200 pmole/Kg “DMD-ASO 1” based on individual grip strength scores by grip test. (N=12 per group) A satellite group of 12 male C57BL/6 mice (7 weeks old) was included in this study as the wild type negative control group for the full-length dystrophin expression level.
The 50 and 200 pmole/Kg group subcutaneously received “DMD-ASO 1” as dissolved in PBS, 2× per week until the final sacrifice in Week 43. In the meantime, the 10 pmole/Kg group subcutaneously received “DMD-ASO 1” initially 2× per week during Week 0 to 8, and 3× per week afterwards to increase the ASO exposure.
[Miscellaneous Findings] There were three cases of unscheduled sacrifice or death (Weeks 26, 39 and 43) in the mdx negative control group due to a large mass of muscular lymphoma developed most likely by chronic muscular inflammation.
“DMD-ASO 1”, “DMD-ASO 2” and “DMD-ASO 6” were evaluated for their physiological effects in male mdx mice by long term subcutaneous administration. In this evaluation the animals were not subjected to physical tests requiring muscular stress in order to keep the transcription of the dystrophin gene undisturbed by excessive muscular stimulation.
[Animals & Grouping] Male mdx mice (6 weeks old) were randomly assigned to 4 groups of the mdx negative control (no ASO treatment), “DMD-ASO 1” 50 pmole/Kg, “DMD-ASO 2” […], and “DMD-ASO 6” […] based on the body weight. (N=12-13 per group) 12 male C57BL/6 mice (6 weeks old) were adopted as the wild type (WT) negative control group.
[Injection Solutions & ASO Treatment] Aqueous mother stock solutions of the ASOs were serially diluted in PBS to prepare the injection solutions of 25 nM “DMD-ASO 1” for 50 pmole/Kg “DMD-ASO 1”, 5 nM “DMD-ASO 2” for “DMD-ASO 2” 10 pmole/Kg, and 5 nM “DMD-ASO 6” for “DMD-ASO 6” 10 pmole/Kg. The animals were subcutaneously administered with the injection solutions at 2 mL/Kg, 2× per week.

serum myoglobin = experiment: Serum myoglobin level in mdx mice; format: in vivo; conditions: DMD-ASO 1 50 pmole/Kg, DMD-ASO 2 or DMD-ASO 6 10 pmole/Kg, 2× per week, Week 66
Description: [Terminal Sacrifice] In Week 48, the animals were subjected to terminal sacrifice for blood sampling. The blood samples were analyzed for the serum level of CK (Creatine Kinase Activity Assay Kit, Cat. Number ab155901, Abcam) and myoglobin (Myoglobin ELISA Kit, Cat. Number ab210965, Abcam) to assess the degree of muscle degradation according to the manufacturer's instructions. Muscle tissues were analyzed by western blot for the full-length dystrophin.
[Terminal Sacrifice] All the survived animals were sacrificed for blood sampling in Week 66 post the grouping. The blood samples were subjected to ELISA assays for serum creatine kinase (CK) and serum myoglobin as described in “DMD Example 6”.

complementary 10-mer DNA = experiment: Tm of 10-mer model PNA with complementary 10-mer DNA; format: binding; conditions: for Tm: 4 μM PNA and 4 μM complementary 10-mer DNA, aqueous buffer pH 7.16, uncorrected; for ΔTm (Tm value - Tm value of PNA 10-1): complementary 10-mer DNA
Description: (§1) The 10-mer PNA oligomers in Table 12 were evaluated for their binding affinity for the complementary 10-mer RNA or DNA by measuring Tm values as described below.
(§2) A mixed solution of 4 μM 10-mer PNA oligomer and 4 μM complementary 10-mer DNA or RNA in 4 mL aqueous buffer (pH 7.16, 10 mM sodium phosphate, 100 mM NaCl) in 15 mL polypropylene falcon tube was incubated at 90° C. for a minute and slowly cooled down to ambient temperature. Then the solution was transferred into a 4 mL quartz UV cuvette, and subjected to Tm measurement at 260 nm on a UV/Visible spectrophotometer as described in the prior art [PCT/KR2009/001256] or with minor modifications. The DNA and RNA for Tm measurement were purchased from Bioneer (www.bioneer.com, Dajeon, Republic of Korea) and used without further purification.

complementary 10-mer RNA = experiment: Tm of 10-mer model PNA with complementary 10-mer RNA; format: binding; conditions: for Tm: 4 μM PNA and 4 μM complementary 10-mer RNA, aqueous buffer pH 7.16, uncorrected; for ΔTm (Tm value - Tm value of PNA 10-1): complementary 10-mer RNA
Description: as §1, §2

[1] = system: sodium current in PC3 cells; experiment: CoroNa assay of sodium current in PC3 cells; format: cell-based, human; conditions: 30 hours
Description: Cellular sodium current is measured by patch clamp. As sodium ions enter cell, the intra-cellular sodium ion level increases. The intra-cellular sodium level can be probed using a sodium ion sensitive dye. “CoroNa Green” is a dye with a sodium ion chelator of crown ether type. Upon chelation with a sodium ion, “CoroNa Green” emits green fluorescence. “CoroNa Green” has been used to indirectly measure the intra-cellular sodium level. […] [Proc. Natl. Acad. Sci. USA vol 106(38), 16145-16150 (2009)]
PC3 cells are known to abundantly express the human SCN9A mRNA, although there are other SCN subtypes concomitantly expressed. [Br J. Pharmacol. vol 156, 420-431 (2009)] Thus an inhibition of SCN9A mRNA expression may lead to a considerable reduction of the sodium current in PC3 cells, if the sodium ion current by the Nav1.7 sodium channel subtype occupies a marked portion of the total sodium ion current in PC3 cells. It is note that the SCN9A mRNA encodes the Nav1.7 sodium channel subtype.
“SCN-ASO 7” was evaluated for its ability to inhibit the sodium ion current in PC3 cells using “CoroNa Green” as follows.
[ASO Treatment] PC3 cells grown in 35 mm culture dish containing 2 mL F-12K medium were treated with “SCN-ASO 7” at 0 zM (negative control), 100 zM or 1 aM.
[CoroNa Assay] 30 hours later, the cells were washed with 2 mL HBSS (Hank's Balanced Salt Solution, Cat. Number 14025-092, Life Technologies), and then charged with 2 mL fresh HBSS. Then the cells were treated with 5 μM “CoroNa Green” (Cat. Number C36676, Life Technologies) at 37° C. 30 min later, the cells were washed 2× with 2 mL HBSS, and charged with 2 mL fresh HBSS. The culture dish was mounted on an Olympus fluorescence microscope equipped with a digital video camera to continuously capture the green fluorescence images of the cells. The cells were acutely treated with 100 mM NaCl, and then the changes in fluorescence cellular images were digitally recorded over a period of 3 min. There were about 4 cells per frame on average. The fluorescence intensities from each individual cell were traced at the resolution of a second. The traces of the intracellular fluorescence intensities from individual cells were overlaid and averaged at each time point. The average of the traces from the individual cells of each ASO concentration were plotted as provided in FIG. 30A using ImageJ program (version 1.50i, NIH). The average fluorescence intensity trace was taken as the individual intra-cellular sodium concentration trace for the cells treated with “SCN-ASO 7” at 0 (negative control), 100 or 1,000 zM.
“SCN-ASO 3” was evaluated for its ability to inhibit the sodium current in PC3 cells using “CoroNa Green” according to the protocol described in “SCN9A Example 5”, unless noted otherwise.
“SCN-ASO 8” was evaluated for its ability to inhibit the sodium current in PC3 cells using “CoroNa Green” according to the protocol described in “SCN9A Example 3”, unless noted otherwise.

[2] = system: rats with diabetes-induced peripheral neuropathic pain (DPNP); experiment: Reversal of allodynia (von Frey) in rats with diabetes-induced peripheral neuropathic pain; format: in vivo, rat; conditions: 100 pmole/Kg subcutaneous in Days 11, 13, 15, 17 and 19
Description: “SCN-ASO 7”, “SCN-ASO 8”, “SCN-ASO 21”, “SCN-ASO 35”, “SCN-ASO 36” and “SCN-ASO 37” were evaluated for their ability to reverse the allodynia in rats with diabetes-induced peripheral neuropathic pain (DPNP). In this example, the six SCN9A ASOs targeting a total of five splice sites were evaluated for their ability to reverse the allodynia induced by diabetic neuropathy in rats.
[Induction of DPNP and Grouping] Diabetes was induced in rats by an intraperitoneal injection of streptozotocin at 60 mg/Kg in Day 0. In Day 10, rats with DPNP were randomly assigned to […] of negative control (vehicle only), “SCN-ASO 7” 100 pmole/Kg, “SCN-ASO 8” 100 pmole/Kg, “SCN-ASO 21” 100 pmole/Kg, “SCN-ASO 35” 100 pmole/Kg, “SCN-ASO 36” 100 pmole/Kg, and “SCN-ASO 37” 100 pmole/Kg. The animals were grouped based on the von Frey scores of individual animals in Day 10. (N=8-9 per group) Allodynia was scored using a set of microfilaments (Touch Test®) according to the “Up & Down” method. [J Neurosci. Methods vol 53(1), 55-63 (1994)]
[ASO Treatment and von Frey Scoring] ASO solutions for injection were prepared by serially diluting aqueous mother stock solutions of the SCN9A ASOs to 100 nM in PBS (phosphate buffered saline). Animals were subcutaneously administered with ASO at 1 mL/Kg in Days 11, 13, 15, 17 and 19. Von Frey scoring was carried out 2 hours post dose in Days 11, 13, 15, 17 and 19. Von Frey scoring was additionally performed in Days 21 and 23 in order to assess the duration of the therapeutic activity after the final dosing. Daily von Frey scores were evaluated for statistical significance by student's t-test against the negative control group (vehicle only, i.e., PBS).

SCN9A mRNA = experiment: SCN9A nested qPCR by SYBR Green in PC3 cells; format: cell-based, human; conditions: PC3 cells, 24 hours
Description: “SCN-ASO 7” was evaluated for its ability to inhibit the expression of the human SCN9A mRNA in PC3 cells by qPCR against a set of exon-specific primers as follows. [Cell Culture & ASO Treatment] PC3 cells grown in 60 mm culture dish containing 5 mL culture medium were incubated with “SCN-ASO 7” for 24 hours at 0 (negative control), 10, 100 or 1,000 zM. (2 culture dishes per concentration) [RNA Extraction] […] [cDNA Synthesis by One Step RT-PCR] […] NO: 78); and SCN-exon 9_reverse: (5'→3') […] NO: 79)]. […] [Nested qPCR Amplification] […] NO: 80); SCN-exon 4_reverse: (5'→3') […] NO: 81); SCN-exon 5_forward: (5'→3') […] NO: 82); SCN-exon 5_reverse: (5'→3') […] NO: 83); SCN-exon 6_forward: (5'→3') […] NO: 84); SCN-exon 6_reverse: (5'→3') […] NO: 85)]. The PCR reactions were probed with SYBR Green (Takara, Japan). […] “SCN-ASO 3” was evaluated for its ability to inhibit the expression of the full-length SCN9A mRNA in PC3 cells according to the protocol described in “SCN9A Example 2”, unless noted otherwise. “SCN-ASO 8” was evaluated for its ability to inhibit the expression of the full-length SCN9A mRNA in PC3 cells according to the protocol described in “SCN9A Example 2”, unless noted otherwise.

10-mer complementary DNA = experiment: Tm between PNA derivatives and 10-mer complementary DNA (N- or C-terminal); format: binding; conditions: uncorrected
Description: as §2
PNA derivatives of Formula I were evaluated for their binding affinity for 10-mer DNAs complementarily targeting either the N-terminal or C-terminal. The binding affinity was assessed by the Tm value for the duplex between PNA and 10-mer complementary DNA. The duplex between PNA derivatives and DNAs of full complementarity usually show Tm values too high to be reliably determined in aqueous buffer solution. The aqueous buffer solution tends to boil off during Tm measurement.

Substance | Tm (complementary 10-mer DNA) | ΔTm (Tm value - Tm value of PNA 10-1) (complementary 10-mer DNA) | Tm (complementary 10-mer RNA) | ΔTm (Tm value - Tm value of PNA 10-1) (complementary 10-mer RNA) | further results
Fethoc-C(12)TC-GG(6)C-TTA(6)-CC(1O2)T-GA(6)A-A(6)TT-NH2 (antisense CTCGGCTTACCTGAAATT; Fethoc N-cap, C-terminal amide, chemistry not fully specified) [DMD-ASO 6] | – | – | – | – | premature deaths (unscheduled death or sacrifice) (mdx mice): three premature deaths; serum myoglobin level smaller than the mdx negative control group by (serum myoglobin): 68%
Fmoc-GTA(5)-GA(5)T-C(1O2)AC-T-NH2 (GTAGATCACT; all peptide nucleic acid (PNA), [A(5)] at 3, 5, [C(1O2)] at 7, 5' {Fmoc}, 3' {NH2}; model 10-mer peptide nucleic acid written N to C) [PNA 10-7] | 69 °C | +18 °C | 69 °C | +18 °C | –
Fmoc-GTA(5)-GA(5)T-CA(5)C-T-NH2 (GTAGATCACT; all peptide nucleic acid (PNA), [A(5)] at 3, 5, 8, 5' {Fmoc}, 3' {NH2}; model 10-mer peptide nucleic acid written N to C) [PNA 10-4] | 66 °C | +15 °C | 66 °C | +11 °C | –
Fmoc-GTA-GAT-CAC-T-NH2 (GTAGATCACT; all peptide nucleic acid (PNA), 5' {Fmoc}, 3' {NH2}; model 10-mer peptide nucleic acid written N to C) [PNA 10-1, reference compound] | 51 °C | – | 55 °C | – | –
Fmoc-TA(5)A-A(5)TA(5)-CGC(1O2)-AA(5)A-A(5)AC-A(5)A-NH2 (TAAATACGCAAAAACAA; chemistry not fully specified) [SCN-ASO 8] | – | – | – | – | decrease of sodium current (CoroNa) ([1]; PC3 cells, 100 zM): 30%; decrease of sodium current / sodium channel activity (CoroNa) ([1]; PC3 cells, 1,000 zM): 31%; average cellular fluorescence intensity (CoroNa Green) ([1]; PC3 cells, 1,000 zM, at 100 sec after 100 mM NaCl): 89.7 arbitrary unit; maximum therapeutic efficacy based on the von Frey scores in Day 19 [2]: 61%; decrease of expression levels of SCN9A exons 4-6 (SYBR Green) (SCN9A mRNA; 10 zM): 50-70%; decrease of expression levels of SCN9A exons 4-6 (SYBR Green) (SCN9A mRNA; 100 zM): 70-80%; Tm Value, 10-mer DNA against C-Terminal (10-mer complementary DNA): 68.6 °C; Tm Value, 10-mer DNA against N-Terminal (10-mer complementary DNA): 74.0 °C
